Data set [1] deals with Cyclin-dependent kinase 2 (Homo sapiens, UniProt P24941).
Description: Inhibition of CDK2/Cyclin E
The target in data set [2] is Cyclin-dependent kinase 4/cyclin D1 (Homo sapiens, UniProt P11802).
Description: Inhibition of CDK4/Cyclin D1
For data set [3], the target named is Cyclin-dependent kinase 1 (Homo sapiens, UniProt P06493).
Description: Inhibition of CDK1/Cyclin B
Data set [4] in a line: in vivo. Conditions: nude, mouse, iv, 10 mg/kg.
Description: Volume of distribution in nude mouse at 10 mg/kg, iv
The nature of data set [5]: in vivo. The following applies: nude, mouse, iv, 10 mg/kg. The source holds these as a separate data set.
Description: Clearance in nude mouse at 10 mg/kg, iv

The structures appear in SMILES notation. Where only a bound is given, the exact number is not on record here.

Sequence of Cyclin-dependent kinase 1 (P06493 whole entry): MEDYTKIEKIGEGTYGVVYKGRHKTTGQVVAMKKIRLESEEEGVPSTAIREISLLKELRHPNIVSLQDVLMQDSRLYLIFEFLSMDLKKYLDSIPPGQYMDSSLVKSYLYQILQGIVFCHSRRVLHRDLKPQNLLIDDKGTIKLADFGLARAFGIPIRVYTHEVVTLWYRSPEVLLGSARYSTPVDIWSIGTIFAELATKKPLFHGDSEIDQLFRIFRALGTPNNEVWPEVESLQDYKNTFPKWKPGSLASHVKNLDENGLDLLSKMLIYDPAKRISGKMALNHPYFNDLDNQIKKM
Sequence of Cyclin-dependent kinase 4/cyclin D1 (P11802 whole entry): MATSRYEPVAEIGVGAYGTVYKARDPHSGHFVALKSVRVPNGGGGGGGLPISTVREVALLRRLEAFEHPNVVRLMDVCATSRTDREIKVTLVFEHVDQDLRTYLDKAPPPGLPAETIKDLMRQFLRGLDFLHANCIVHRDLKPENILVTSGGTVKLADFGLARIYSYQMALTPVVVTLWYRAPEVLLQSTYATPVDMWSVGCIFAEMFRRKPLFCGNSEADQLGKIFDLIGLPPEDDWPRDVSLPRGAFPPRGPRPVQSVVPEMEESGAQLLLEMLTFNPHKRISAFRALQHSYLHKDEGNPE
Sequence of Cyclin-dependent kinase 4/cyclin D1 (P24385 whole entry, further chain): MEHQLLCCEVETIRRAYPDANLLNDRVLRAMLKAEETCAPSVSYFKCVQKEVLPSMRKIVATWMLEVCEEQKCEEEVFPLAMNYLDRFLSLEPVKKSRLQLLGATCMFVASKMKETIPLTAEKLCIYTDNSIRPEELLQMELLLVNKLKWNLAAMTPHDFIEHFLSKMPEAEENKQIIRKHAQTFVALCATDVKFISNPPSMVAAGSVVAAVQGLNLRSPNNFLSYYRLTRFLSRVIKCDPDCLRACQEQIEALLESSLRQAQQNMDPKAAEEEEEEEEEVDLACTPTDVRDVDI

As for `COc1cccc(C(=O)c2cnc(Nc3ccc(N4CCN(C)CC4)cc3)nc2N)c1`, the Ki is over 10000 nM in data set [1], over 1000 nM in data set [2] and over 10000 nM in data set [3].
Take `CCOc1ccccc1C(=O)c1cnc(NC2CCN(C(C)=O)CC2)nc1N`: the results for the inhibition constant (Ki) in data set [1], in data set [2] and in data set [3] were 2030 nM, 986 nM and 2500 nM, respectively.
The like results for `CN1CCN(c2ccc(Nc3ncc(C(=O)c4cccc(C(F)(F)F)c4)c(N)n3)cc2)CC1` were, in that order, over 10000 nM, over 1000 nM and over 10000 nM.
Consider `CCOC(=O)N1CCC(Nc2ncc(C(=O)c3ccccc3OC)c(N)n2)CC1`, for which the Ki in data set [1] amounted to 597 nM; in data set [2] it was 110 nM; in data set [3], 246 nM.
The like results for `CN1CCN(c2ccc(Nc3ncc(C(=O)c4cccc(F)c4)c(N)n3)cc2)CC1` were, in that order, over 10000 nM, 450 nM and over 10000 nM.
The corresponding values for `COc1ccc(Cl)cc1C(=O)c1cnc(NC2CCN(S(C)(=O)=O)CC2)nc1N` are 451 nM, 36 nM and 133 nM.
For `CCS(=O)(=O)N1CCC(Nc2ncc(C(=O)c3ccccc3OC)c(N)n2)CC1`, the Ki in data set [1] was found to be 51 nM; in data set [2], 16 nM; in data set [3] it was 43 nM.
`CCOC(=O)N1CCC(Nc2ncc(C(=O)c3ccccc3F)c(N)n2)CC1`: the Ki in data set [1] was determined as 3140 nM; in data set [2], 734 nM; in data set [3] it was 1640 nM.
The corresponding values for `COc1c(C(=O)c2cnc(NC3CCN(S(C)(=O)=O)CC3)nc2N)cc(F)c(F)c1F` are 495 nM, 267 nM and 1670 nM.
Consider `COc1ccccc1C(=O)c1cnc(NC2CCNCC2)nc1N`, for which the Ki in data set [1] came to 6270 nM; in data set [2], 481 nM; in data set [3] it was 5840 nM.
Consider `COc1cc(F)c(F)cc1C(=O)c1cnc(NC2CCN(S(C)(=O)=O)CC2)nc1N`, for which the inhibition constant Ki is 6 nM in data set [1], 6 nM in data set [2] and 14 nM in data set [3].
In the case of `CCCC(=O)N1CCC(Nc2ncc(C(=O)c3ccccc3OC)c(N)n2)CC1`, the Ki amounted to 886 nM in data set [1], 98 nM in data set [2] and 278 nM in data set [3].
The corresponding values for `COc1cccc(F)c1C(=O)c1cnc(NC2CCN(S(C)(=O)=O)CC2)nc1N` are 13 nM, 3 nM and 17 nM.
In the case of `COc1ccc(F)cc1C(=O)c1cnc(NC2CCN(S(C)(=O)=O)CC2)nc1N`, the Ki in data set [1] was 7 nM; in data set [2], 7 nM; in data set [3], 14 nM. In the data set “in vivo [4]”, this compound showed a Vd of 0.885 L/kg. For the same compound, the clearance in the data set “in vivo [5]” was 48.3 mL/min/kg.
With `Cc1ccccc1C(=O)c1cnc(Nc2ccc(N3CCN(C)CC3)cc2)nc1N`, the inhibition constant (Ki) in data set [1] was over 10000 nM; in data set [2], 584 nM; in data set [3], over 10000 nM.
For `CS(=O)(=O)N1CCC(Nc2ncc(C(=O)c3c(F)cccc3F)c(N)n2)CC1`, the inhibitory constant (Ki) came to 15 nM in data set [1], 17 nM in data set [2] and 38 nM in data set [3].
For the compound `COc1cc(F)c(F)c(F)c1C(=O)c1cnc(NC2CCN(S(C)(=O)=O)CC2)nc1N`, the Ki is 2 nM in data set [1], 1 nM in data set [2] and 5 nM in data set [3].
On to `COc1cc(F)ccc1C(=O)c1cnc(NC2CCN(S(C)(=O)=O)CC2)nc1N`, for which the values for the Ki in data set [1], in data set [2] and in data set [3] were 84 nM, 21 nM and 193 nM, respectively.
The corresponding values for `CN1CCN(c2ccc(Nc3ncc(C(=O)c4ccccc4C(F)(F)F)c(N)n3)cc2)CC1` are over 10000 nM, 821 nM and over 10000 nM.
The corresponding values for `COc1ccccc1C(=O)c1cnc(Nc2ccc(N3CCN(C)CC3)cc2)nc1N` are 5140 nM, 159 nM and 1260 nM.
The like results for `COc1ccccc1C(=O)c1cnc(NC2CCN(C)CC2)nc1N` were, in that order, over 10000 nM, over 1000 nM and 6620 nM.
As to `CCOC(=O)N1CCC(Nc2ncc(C(=O)c3ccccc3C)c(N)n2)CC1`, the inhibition constant (Ki) worked out at 2170 nM in data set [1], 665 nM in data set [2] and 1110 nM in data set [3].
On to `COc1ccccc1C(=O)c1cnc(NC2CCN(C(C)=O)CC2)nc1N`, for which the Ki worked out at 327 nM in data set [1], 66 nM in data set [2] and 181 nM in data set [3].
The like results for `CCNC(=O)N1CCC(Nc2ncc(C(=O)c3ccccc3OC)c(N)n2)CC1` were, in that order, 1760 nM, 409 nM and 1530 nM.

By Ki is commonly meant a measure of affinity in units of concentration, obtained from inhibition or displacement. A low value points to higher affinity. Usually Vd stands for a proportionality between amount in the body and measured concentration, not a real space. Low readings indicate little distribution into tissue, high ones wide distribution into tissue. As usually defined, the clearance is the rate of elimination divided by the concentration. The low end stands for a low capacity for elimination, the high end for a high capacity for elimination.

The values above are taken from ChEMBL document CHEMBL1137323, “Discovery of [4-Amino-2-(1-methanesulfonylpiperidin-4-ylamino)pyrimidin-5-yl](2,3-difluoro-6- methoxyphenyl)methanone (R547), a potent and selective cyclin-dependent kinase inhibitor with significant in vivo antitumor activity” (J Med Chem, 2006).
